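How tested: cells in 96-well plates exposed to compound for 48 hours at five concentrations. Here, GI50 denotes the concentration required for 50% inhibition of growth. TGI denotes the concentration required for complete inhibition of growth.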
How the values were obtained:
Assay in all cases: NCI anticancer screen, dose series, 48 h
HCT-116 colon = system: HCT-116 colon
OVCAR-8 ovarian = system: OVCAR-8 ovarian
A498 renal = system: A498 renal
U251 CNS = system: U251 CNS
NCI-H460 lung = system: NCI-H460 lung
LOX IMVI melanoma = system: LOX IMVI melanoma
K-562 leukemia = system: K-562 leukemia
HCT-15 colon = system: HCT-15 colon
HT29 colon = system: HT29 colon
UO-31 renal = system: UO-31 renal
BT-549 breast = system: BT-549 breast
RPMI-8226 leukemia = system: RPMI-8226 leukemia
MOLT-4 leukemia = system: MOLT-4 leukemia
SK-OV-3 ovarian = system: SK-OV-3 ovarian
SK-MEL-2 melanoma = system: SK-MEL-2 melanoma
SNB-19 CNS = system: SNB-19 CNS
UACC-62 melanoma = system: UACC-62 melanoma
RXF 393 renal = system: RXF 393 renal
CAKI-1 renal = system: CAKI-1 renal
SW-620 colon = system: SW-620 colon
HOP-92 NSCLC = system: HOP-92 NSCLC
MALME-3M melanoma = system: MALME-3M melanoma
NCI-H23 lung = system: NCI-H23 lung
CCRF-CEM leukemia = system: CCRF-CEM leukemia
T-47D breast = system: T-47D breast
HCC-2998 colon = system: HCC-2998 colon
PC-3 prostate = system: PC-3 prostate
UACC-257 melanoma = system: UACC-257 melanoma
SN12C renal = system: SN12C renal
KM12 colon = system: KM12 colon
MDA-MB-231 breast = system: MDA-MB-231 breast
OVCAR-5 ovarian = system: OVCAR-5 ovarian
M14 melanoma = system: M14 melanoma
MDA-MB-435 = system: MDA-MB-435
SK-MEL-5 melanoma = system: SK-MEL-5 melanoma
DU-145 prostate = system: DU-145 prostate
786-0 renal = system: 786-0 renal
TK-10 renal = system: TK-10 renal
HOP-62 NSCLC = system: HOP-62 NSCLC
NCI/ADR-RES ovarian = system: NCI/ADR-RES ovarian
OVCAR-4 ovarian = system: OVCAR-4 ovarian
SR leukemia = system: SR leukemia
SNB-75 CNS = system: SNB-75 CNS
OVCAR-3 ovarian = system: OVCAR-3 ovarian
SK-MEL-28 melanoma = system: SK-MEL-28 melanoma
SF-539 CNS = system: SF-539 CNS
ACHN renal = system: ACHN renal
MCF7 breast = system: MCF7 breast
SF-268 CNS = system: SF-268 CNS
SF-295 CNS = system: SF-295 CNS
A549 NSCLC = system: A549 NSCLC
NCI-H226 lung = system: NCI-H226 lung
NCI-H522 lung = system: NCI-H522 lung
COLO 205 colon = system: COLO 205 colon
HS 578T breast = system: HS 578T breast
IGROV1 ovarian = system: IGROV1 ovarian
HL-60(TB) leukemia = system: HL-60(TB) leukemia
EKVX NSCLC = system: EKVX NSCLC

SMILES: Nc1c(C(=O)c2ccc(CCCN3CCOCC3)cc2)cnn1-c1ccc(F)cc1
- GI50 (HCT-116 colon): > 25 µM
- TGI (HCT-116 colon): > 25 µM
- GI50 (OVCAR-8 ovarian): > 25 µM
- TGI (OVCAR-8 ovarian): > 25 µM
- GI50 (A498 renal): > 14.5 µM
- TGI (A498 renal): > 25 µM
- GI50 (U251 CNS): > 25 µM
- TGI (U251 CNS): > 25 µM
- GI50 (NCI-H460 lung): > 25 µM
- TGI (NCI-H460 lung): > 25 µM
- GI50 (LOX IMVI melanoma): > 25 µM
- TGI (LOX IMVI melanoma): > 25 µM
- GI50 (K-562 leukemia): 9.33 µM
- TGI (K-562 leukemia): > 25 µM
- GI50 (HCT-15 colon): > 25 µM
- TGI (HCT-15 colon): > 25 µM
- GI50 (HT29 colon): > 25 µM
- TGI (HT29 colon): > 25 µM
- GI50 (UO-31 renal): > 25 µM
- TGI (UO-31 renal): > 25 µM
- GI50 (BT-549 breast): > 25 µM
- TGI (BT-549 breast): > 25 µM
- GI50 (RPMI-8226 leukemia): > 15.4 µM
- TGI (RPMI-8226 leukemia): > 25 µM
- GI50 (MOLT-4 leukemia): > 25 µM
- TGI (MOLT-4 leukemia): > 25 µM
- GI50 (SK-OV-3 ovarian): > 25 µM
- TGI (SK-OV-3 ovarian): > 25 µM
- GI50 (SK-MEL-2 melanoma): > 25 µM
- TGI (SK-MEL-2 melanoma): > 25 µM
- GI50 (SNB-19 CNS): > 25 µM
- TGI (SNB-19 CNS): > 25 µM
- GI50 (UACC-62 melanoma): > 25 µM
- TGI (UACC-62 melanoma): > 25 µM
- GI50 (RXF 393 renal): > 25 µM
- TGI (RXF 393 renal): > 25 µM
- GI50 (CAKI-1 renal): > 25 µM
- TGI (CAKI-1 renal): > 25 µM
- GI50 (SW-620 colon): > 25 µM
- TGI (SW-620 colon): > 25 µM
- GI50 (HOP-92 NSCLC): 3.22 µM
- TGI (HOP-92 NSCLC): > 25 µM
- GI50 (MALME-3M melanoma): > 25 µM
- TGI (MALME-3M melanoma): > 25 µM
- GI50 (NCI-H23 lung): > 25 µM
- TGI (NCI-H23 lung): > 25 µM
- GI50 (CCRF-CEM leukemia): > 25 µM
- TGI (CCRF-CEM leukemia): > 25 µM
- GI50 (T-47D breast): 10.3 µM
- TGI (T-47D breast): > 25 µM
- GI50 (HCC-2998 colon): > 25 µM
- TGI (HCC-2998 colon): > 25 µM
- GI50 (PC-3 prostate): > 25 µM
- TGI (PC-3 prostate): > 25 µM
- GI50 (UACC-257 melanoma): 24.3 µM
- TGI (UACC-257 melanoma): > 25 µM
- GI50 (SN12C renal): > 25 µM
- TGI (SN12C renal): > 25 µM
- GI50 (KM12 colon): > 25 µM
- TGI (KM12 colon): > 25 µM
- GI50 (MDA-MB-231 breast): > 25 µM
- TGI (MDA-MB-231 breast): > 25 µM
- GI50 (OVCAR-5 ovarian): > 25 µM
- TGI (OVCAR-5 ovarian): > 25 µM
- GI50 (M14 melanoma): > 25 µM
- TGI (M14 melanoma): > 25 µM
- GI50 (MDA-MB-435): > 25 µM
- TGI (MDA-MB-435): > 25 µM
- GI50 (SK-MEL-5 melanoma): 8.01 µM
- TGI (SK-MEL-5 melanoma): 24.3 µM
- GI50 (DU-145 prostate): > 25 µM
- TGI (DU-145 prostate): > 25 µM
- GI50 (786-0 renal): > 25 µM
- TGI (786-0 renal): > 25 µM
- GI50 (TK-10 renal): > 25 µM
- TGI (TK-10 renal): > 25 µM
- GI50 (HOP-62 NSCLC): > 25 µM
- TGI (HOP-62 NSCLC): > 25 µM
- GI50 (NCI/ADR-RES ovarian): > 25 µM
- TGI (NCI/ADR-RES ovarian): > 25 µM
- GI50 (OVCAR-4 ovarian): > 19.1 µM
- TGI (OVCAR-4 ovarian): > 25 µM
- GI50 (SR leukemia): > 20.4 µM
- TGI (SR leukemia): > 25 µM
- GI50 (SNB-75 CNS): > 25 µM
- TGI (SNB-75 CNS): > 25 µM
- GI50 (OVCAR-3 ovarian): 24.3 µM
- TGI (OVCAR-3 ovarian): > 25 µM
- GI50 (SK-MEL-28 melanoma): > 25 µM
- TGI (SK-MEL-28 melanoma): > 25 µM
- GI50 (SF-539 CNS): > 25 µM
- TGI (SF-539 CNS): > 25 µM
- GI50 (ACHN renal): > 25 µM
- TGI (ACHN renal): > 25 µM
- GI50 (MCF7 breast): > 25 µM
- TGI (MCF7 breast): > 25 µM
- GI50 (SF-268 CNS): > 25 µM
- TGI (SF-268 CNS): > 25 µM
- GI50 (SF-295 CNS): > 25 µM
- TGI (SF-295 CNS): > 25 µM
- GI50 (A549 NSCLC): > 25 µM
- TGI (A549 NSCLC): > 25 µM
- GI50 (NCI-H226 lung): > 15.2 µM
- TGI (NCI-H226 lung): > 25 µM
- GI50 (NCI-H522 lung): > 25 µM
- TGI (NCI-H522 lung): > 25 µM
- GI50 (COLO 205 colon): > 25 µM
- TGI (COLO 205 colon): > 25 µM
- GI50 (HS 578T breast): > 25 µM
- TGI (HS 578T breast): > 25 µM
- GI50 (IGROV1 ovarian): > 25 µM
- TGI (IGROV1 ovarian): > 25 µM
- GI50 (HL-60(TB) leukemia): > 25 µM
- TGI (HL-60(TB) leukemia): > 25 µM

SMILES: COc1ccc(-n2c(N)c(C#N)c(C#N)c2-c2ccccc2)cc1
- TGI (HCT-116 colon): > 100 µM
- TGI (OVCAR-8 ovarian): > 100 µM
- TGI (A498 renal): > 100 µM
- TGI (U251 CNS): > 100 µM
- TGI (LOX IMVI melanoma): > 100 µM
- TGI (HCT-15 colon): > 100 µM
- TGI (HT29 colon): > 100 µM
- TGI (UO-31 renal): > 100 µM
- TGI (BT-549 breast): > 100 µM
- TGI (RPMI-8226 leukemia): > 100 µM
- TGI (MOLT-4 leukemia): > 100 µM
- TGI (SK-OV-3 ovarian): > 100 µM
- TGI (SK-MEL-2 melanoma): > 100 µM
- TGI (SNB-19 CNS): > 100 µM
- TGI (UACC-62 melanoma): > 100 µM
- TGI (RXF 393 renal): > 100 µM
- TGI (CAKI-1 renal): > 100 µM
- TGI (SW-620 colon): > 100 µM
- TGI (HOP-92 NSCLC): 76.5 µM
- TGI (MALME-3M melanoma): > 100 µM
- TGI (NCI-H23 lung): > 100 µM
- TGI (CCRF-CEM leukemia): > 100 µM
- TGI (T-47D breast): > 100 µM
- TGI (HCC-2998 colon): > 100 µM
- TGI (PC-3 prostate): > 100 µM
- TGI (UACC-257 melanoma): > 100 µM
- TGI (SN12C renal): > 100 µM
- TGI (KM12 colon): > 100 µM
- TGI (MDA-MB-231 breast): > 100 µM
- TGI (OVCAR-5 ovarian): > 100 µM
- TGI (M14 melanoma): > 100 µM
- TGI (MDA-MB-435): > 100 µM
- TGI (SK-MEL-5 melanoma): > 100 µM
- TGI (DU-145 prostate): > 100 µM
- TGI (786-0 renal): > 100 µM
- TGI (TK-10 renal): > 100 µM
- TGI (HOP-62 NSCLC): > 100 µM
- TGI (NCI/ADR-RES ovarian): > 100 µM
- TGI (EKVX NSCLC): > 100 µM
- TGI (OVCAR-4 ovarian): 93.2 µM
- TGI (SR leukemia): > 100 µM
- TGI (SNB-75 CNS): 68.6 µM
- TGI (OVCAR-3 ovarian): > 100 µM
- TGI (SF-539 CNS): > 100 µM
- TGI (ACHN renal): > 100 µM
- TGI (MCF7 breast): > 100 µM
- TGI (SF-268 CNS): > 100 µM
- TGI (SF-295 CNS): > 100 µM
- TGI (A549 NSCLC): > 100 µM
- TGI (NCI-H226 lung): > 100 µM
- TGI (NCI-H522 lung): > 100 µM
- TGI (COLO 205 colon): > 100 µM
- TGI (HS 578T breast): > 100 µM
- TGI (IGROV1 ovarian): > 100 µM
- TGI (HL-60(TB) leukemia): > 100 µM

Reference: PubChem BioAssay (NCI)
